Consider one compound from publication PMC5218480 (PLoS ONE, 2017).

For the assay, the system named is MV-4-11 cells. Nature of the assay: Gene expression microarray analysis (Affymetrix PrimeView) and GSEA. Format: cell-based, human. Also noted: RFU PODN (11730768_x_at) / Fold change /veh PODN (11730768_x_at) / RFU LINC00158 (11744669_a_at) / Fold change /veh LINC00158 (11744669_a_at) / RFU DUSP10 (11751237_a_at) / Fold change /veh DUSP10 (11751237_a_at) / RFU ID3 (11757404_x_at) / Fold change /veh ID3 (11757404_x_at) / RFU PLEKHG5 (11737974_s_at) / Fold change /veh PLEKHG5 (11737974_s_at) / RFU LRRC4B (11730491_at) / Fold change /veh LRRC4B (11730491_at) / RFU GIMAP4 (11747438_a_at) / Fold change /veh GIMAP4 (11747438_a_at) / RFU KRT8 (11758183_x_at) / Fold change /veh KRT8 (11758183_x_at) / RFU CNN1 (11734310_a_at) / Fold change /veh CNN1 (11734310_a_at) / RFU VPS37D (11726825_at) / Fold change /veh VPS37D (11726825_at) / RFU C10orf10 (11716522_x_at) / Fold change /veh C10orf10 (11716522_x_at) / RFU KIR2DL2 /// KIR2DL4 /// KIR2DL5A /// KIR2DL5B /// KIR2DS1 /// KIR2DS2 /// KIR2DS3 /// KIR2DS4 /// KIR3DL3 /// KIR3DL3 /// KIR3DS1 (11738374_at) / Fold change /veh KIR2DL2 /// KIR2DL4 /// KIR2DL5A /// KIR2DL5B /// KIR2DS1 /// KIR2DS2 /// KIR2DS3 /// KIR2DS4 /// KIR3DL3 /// KIR3DL3 /// KIR3DS1 (11738374_at) / RFU C1QL1 (11718748_at) / Fold change /veh C1QL1 (11718748_at) / RFU TMPRSS4 (11747572_a_at) / Fold change /veh TMPRSS4 (11747572_a_at) / RFU HAMP (11756126_x_at) / Fold change /veh HAMP (11756126_x_at) / RFU RNFT2 (11725882_a_at) / Fold change /veh RNFT2 (11725882_a_at) / RFU NR4A2 (11747474_a_at) / Fold change /veh NR4A2 (11747474_a_at) / RFU ABCC12 (11746883_a_at) / Fold change /veh ABCC12 (11746883_a_at) / RFU TMEM136 (11760407_x_at) / Fold change /veh TMEM136 (11760407_x_at) / RFU CLDN22 /// WWC2 (11732394_at) / Fold change /veh CLDN22 /// WWC2 (11732394_at) / RFU HLA-DPB1 (11760878_x_at) / Fold change /veh HLA-DPB1 (11760878_x_at) / RFU SPINT1 (11716480_a_at) / Fold change /veh SPINT1 (11716480_a_at) / RFU GAP43 (11754022_s_at) / Fold change /veh GAP43 (11754022_s_at) / RFU A4GNT (11735810_at) / Fold change /veh A4GNT (11735810_at) / RFU PRB3 (11715151_x_at) / Fold change /veh PRB3 (11715151_x_at) / RFU TUBB4B (11761932_at) / Fold change /veh TUBB4B (11761932_at) / RFU CAPN14 (11732068_a_at) / Fold change /veh CAPN14 (11732068_a_at) / RFU TMCC2 (11721928_a_at) / Fold change /veh TMCC2 (11721928_a_at) / RFU IRGQ (11745062_a_at) / Fold change /veh IRGQ (11745062_a_at) / RFU FAM174B (11720279_a_at) / Fold change /veh FAM174B (11720279_a_at) / RFU TMPRSS4 (11748680_a_at) / Fold change /veh TMPRSS4 (11748680_a_at) / RFU FAM212B (11763350_a_at) / Fold change /veh FAM212B (11763350_a_at) / RFU PLEKHG5 (11743358_a_at) / Fold change /veh PLEKHG5 (11743358_a_at) / RFU ZSCAN30 (11745921_a_at) / Fold change /veh ZSCAN30 (11745921_a_at) / RFU CMKLR1 (11741424_a_at) / Fold change /veh CMKLR1 (11741424_a_at) / RFU LOC101060620 /// MAPK8IP1 (11723275_at) / Fold change /veh LOC101060620 /// MAPK8IP1 (11723275_at) / RFU SPTSSB (11747773_x_at) / Fold change /veh SPTSSB (11747773_x_at) / RFU PRSS12 (11739890_at) / Fold change /veh PRSS12 (11739890_at) / RFU BIN1 (11741810_x_at) / Fold change /veh BIN1 (11741810_x_at) / RFU WNT11 (11732464_a_at) / Fold change /veh WNT11 (11732464_a_at) / RFU C10orf10 (11716521_a_at) / Fold change /veh C10orf10 (11716521_a_at) / RFU C5orf56 (11738089_at) / Fold change /veh C5orf56 (11738089_at) / RFU CYB561 (11721691_x_at) / Fold change /veh CYB561 (11721691_x_at) / RFU ANKRD19P (11752326_a_at) / Fold change /veh ANKRD19P (11752326_a_at) / RFU OR2T12 /// OR2T33 /// OR2T8 (11738714_s_at) / Fold change /veh OR2T12 /// OR2T33 /// OR2T8 (11738714_s_at) / RFU VCAN (11748164_a_at) / Fold change /veh VCAN (11748164_a_at) / RFU JSRP1 (11732532_at) / Fold change /veh JSRP1 (11732532_at) / RFU KRTAP10-11 (11738290_x_at) / Fold change /veh KRTAP10-11 (11738290_x_at) / RFU MYO3A (11730013_a_at) / Fold change /veh MYO3A (11730013_a_at) / RFU EBF3 (11725865_a_at) / Fold change /veh EBF3 (11725865_a_at) / RFU CAMK2N1 (11719241_x_at) / Fold change /veh CAMK2N1 (11719241_x_at) / RFU C5orf56 (11738088_a_at) / Fold change /veh C5orf56 (11738088_a_at) / RFU OLFML3 (11715873_a_at) / Fold change /veh OLFML3 (11715873_a_at) / RFU LOC100653217 /// NTM (11731650_a_at) / Fold change /veh LOC100653217 /// NTM (11731650_a_at) / RFU MAPK11 (11762145_a_at) / Fold change /veh MAPK11 (11762145_a_at) / RFU FIZ1 (11724087_x_at) / Fold change /veh FIZ1 (11724087_x_at) / RFU OASL (11726364_x_at) / Fold change /veh OASL (11726364_x_at) / RFU SOX15 (11748057_x_at) / Fold change /veh SOX15 (11748057_x_at) / RFU CD79A (11719716_a_at) / Fold change /veh CD79A (11719716_a_at) / RFU HIST1H1D (11736915_at) / Fold change /veh HIST1H1D (11736915_at) / RFU CASKIN2 (11723855_a_at) / Fold change /veh CASKIN2 (11723855_a_at) / RFU LOC730098 (11760151_x_at) / Fold change /veh LOC730098 (11760151_x_at) / RFU OR4N2 (11742367_at) / Fold change /veh OR4N2 (11742367_at) / RFU PRRT2 (11749266_a_at) / Fold change /veh PRRT2 (11749266_a_at) / RFU SNX32 (11753110_a_at) / Fold change /veh SNX32 (11753110_a_at) / RFU CDHR5 (11726645_a_at) / Fold change /veh CDHR5 (11726645_a_at) / RFU RCAN1 (11760418_a_at) / Fold change /veh RCAN1 (11760418_a_at) / RFU FAM167A (11723789_a_at) / Fold change /veh FAM167A (11723789_a_at) / RFU FAM26E (11764081_at) / Fold change /veh FAM26E (11764081_at) / RFU ISYNA1 (11749810_s_at) / Fold change /veh ISYNA1 (11749810_s_at) / RFU ACY1 (11761880_at) / Fold change /veh ACY1 (11761880_at) / RFU 11764098_at / Fold change /veh 11764098_at / RFU SAMD14 (11745864_x_at) / Fold change /veh SAMD14 (11745864_x_at) / RFU NPB (11741838_a_at) / Fold change /veh NPB (11741838_a_at) / RFU TMPRSS6 (11731388_a_at) / Fold change /veh TMPRSS6 (11731388_a_at) / RFU KRTAP10-2 (11738614_at) / Fold change /veh KRTAP10-2 (11738614_at) / RFU ARHGAP8 /// PRR5-ARHGAP8 (11727945_x_at) / Fold change /veh ARHGAP8 /// PRR5-ARHGAP8 (11727945_x_at) / RFU KRTAP5-7 /// NADSYN1 (11734609_at) / Fold change /veh KRTAP5-7 /// NADSYN1 (11734609_at) / RFU RASL12 (11751679_a_at) / Fold change /veh RASL12 (11751679_a_at) / RFU CDKN2B (11736163_a_at) / Fold change /veh CDKN2B (11736163_a_at) / RFU PRF1 (11729649_at) / Fold change /veh PRF1 (11729649_at) / RFU, ZNF638 /// ZNF638-IT1 / Fold change vs veh, ZNF638 /// ZNF638-IT1 / RFU, PANK3 / Fold change vs veh, PANK3 / RFU, SH3YL1 / Fold change vs veh, SH3YL1 / RFU, ZEB2 / Fold change vs veh, ZEB2 / RFU, NRIP1 / Fold change vs veh, NRIP1 / RFU, PTTG1IP / Fold change vs veh, PTTG1IP / RFU, CAPN2 / Fold change vs veh, CAPN2 / RFU, MED14 / Fold change vs veh, MED14 / RFU, SNORA58 / Fold change vs veh, SNORA58 / RFU, C1orf63 / Fold change vs veh, C1orf63 / RFU, LRRFIP1 / Fold change vs veh, LRRFIP1 / RFU, NDUFAF7 / Fold change vs veh, NDUFAF7 / RFU, SLC12A2 / Fold change vs veh, SLC12A2 / RFU, IBTK / Fold change vs veh, IBTK / RFU, ESF1 / Fold change vs veh, ESF1 / Fold change vs veh, TMEM50B / RFU, TAOK1 / Fold change vs veh, TAOK1 / RFU, ACBD3 / Fold change vs veh, ACBD3 / RFU, TMA16 / Fold change vs veh, TMA16 / RFU, RWDD3 / Fold change vs veh, RWDD3 / RFU, BCAT1 / Fold change vs veh, BCAT1 / RFU, EDEM3 / Fold change vs veh, EDEM3 / RFU, TMEM33 / Fold change vs veh, TMEM33 / RFU, WDR75 / Fold change vs veh, WDR75 / RFU, AHCTF1 / Fold change vs veh, AHCTF1 / RFU, TFRC / Fold change vs veh, TFRC / RFU, ZDHHC17 / Fold change vs veh, ZDHHC17 / RFU, NOM1 / Fold change vs veh, NOM1 / RFU, ARL8B / Fold change vs veh, ARL8B / RFU, ZBTB11 / Fold change vs veh, ZBTB11 / RFU, TAMM41 / Fold change vs veh, TAMM41 / RFU, KIAA1704 /// LOC100996395 / Fold change vs veh, KIAA1704 /// LOC100996395 / RFU, ING1 / Fold change vs veh, ING1 / RFU, TRMT61B / Fold change vs veh, TRMT61B / RFU, FUBP3 / Fold change vs veh, FUBP3 / RFU, TP53 / Fold change vs veh, TP53 / RFU, TNKS2 / Fold change vs veh, TNKS2 / RFU, ZFP14 / Fold change vs veh, ZFP14 / RFU, ACTR2 / Fold change vs veh, ACTR2 / RFU, PPP3R1 / Fold change vs veh, PPP3R1 / RFU, PIK3R1 / Fold change vs veh, PIK3R1 / RFU, HNRNPA1 / Fold change vs veh, HNRNPA1 / RFU, RNF170 / Fold change vs veh, RNF170 / RFU, ZNF28 / Fold change vs veh, ZNF28 / RFU, RNGTT / Fold change vs veh, RNGTT / RFU, OGT / Fold change vs veh, OGT / RFU, BRD1 / Fold change vs veh, BRD1 / RFU, MARS / Fold change vs veh, MARS / RFU, ZNF655 / Fold change vs veh, ZNF655 / RFU, FAHD1 / Fold change vs veh, FAHD1 / RFU, BDP1 / Fold change vs veh, BDP1 / RFU, LRRCC1 / Fold change vs veh, LRRCC1 / RFU, ARID1A / Fold change vs veh, ARID1A / RFU, ZNF146 / Fold change vs veh, ZNF146 / RFU, ZNF330 / Fold change vs veh, ZNF330 / RFU, GPN3 / Fold change vs veh, GPN3 / RFU, C9orf123 / Fold change vs veh, C9orf123 / RFU, N4BP2L2 / Fold change vs veh, N4BP2L2 / RFU, ARFIP1 / Fold change vs veh, ARFIP1 / RFU, FAM179B / Fold change vs veh, FAM179B / RFU, BCL10 / Fold change vs veh, BCL10 / RFU, UHRF1BP1L / Fold change vs veh, UHRF1BP1L / RFU, BET1 / Fold change vs veh, BET1 / RFU, CNOT2 / Fold change vs veh, CNOT2 / RFU, ZNF268 / Fold change vs veh, ZNF268 / Fold change vs veh, ZNF507 / RFU, DGCR2 / Fold change vs veh, DGCR2 / RFU, WDSUB1 / Fold change vs veh, WDSUB1 / Fold change vs veh, HSP90B1 /// MIR3652 / RFU, ADSS / Fold change vs veh, ADSS / RFU, GK / Fold change vs veh, GK / RFU, ZNF148 / Fold change vs veh, ZNF148 / RFU, TAF9 / Fold change vs veh, TAF9 / RFU, SLC1A5 / Fold change vs veh, SLC1A5 / RFU, SLMO2 / Fold change vs veh, SLMO2 / RFU, ABCC4 / Fold change vs veh, ABCC4 / RFU, LOC101060439 /// RAP1B / Fold change vs veh, LOC101060439 /// RAP1B / RFU, RFX7 / Fold change vs veh, RFX7 / RFU, GTPBP10 / Fold change vs veh, GTPBP10 / RFU, CNEP1R1 / Fold change vs veh, CNEP1R1 / RFU, BIVM-ERCC5 /// ERCC5 / Fold change vs veh, BIVM-ERCC5 /// ERCC5 / RFU, ILF3 / Fold change vs veh, ILF3 / RFU 11762660_at / Fold change /veh 11762660_at / RFU VCAN (11757783_s_at) / Fold change /veh VCAN (11757783_s_at) / RFU DDX43 (11728927_at) / Fold change /veh DDX43 (11728927_at) / RFU KRT8 (11758188_x_at) / Fold change /veh KRT8 (11758188_x_at) / RFU NKD1 (11759106_at) / Fold change /veh NKD1 (11759106_at) / RFU SRD5A1 (11742802_a_at) / Fold change /veh SRD5A1 (11742802_a_at) / RFU TPSAB1 /// TPSB2 (11721975_s_at) / Fold change /veh TPSAB1 /// TPSB2 (11721975_s_at) / RFU GSTM3 (11746129_a_at) / Fold change /veh GSTM3 (11746129_a_at) / RFU IL23R (11737362_x_at) / Fold change /veh IL23R (11737362_x_at) / RFU TMEM51 (11727254_a_at) / Fold change /veh TMEM51 (11727254_a_at) / RFU PIWIL2 (11732686_x_at) / Fold change /veh PIWIL2 (11732686_x_at) / RFU ORM1 (11744905_x_at) / Fold change /veh ORM1 (11744905_x_at) / RFU CCDC152 (11743942_at) / Fold change /veh CCDC152 (11743942_at) / RFU ECM1 (11717891_a_at) / Fold change /veh ECM1 (11717891_a_at) / RFU IL23R (11748794_a_at) / Fold change /veh IL23R (11748794_a_at) / RFU TNFAIP8L3 (11732012_x_at) / Fold change /veh TNFAIP8L3 (11732012_x_at) / RFU MBOAT4 (11741988_at) / Fold change /veh MBOAT4 (11741988_at) / RFU 11764193_at / Fold change /veh 11764193_at / RFU TMEM53 (11763286_at) / Fold change /veh TMEM53 (11763286_at) / RFU MAGEB2 (11727129_at) / Fold change /veh MAGEB2 (11727129_at) / RFU TMEM200A (11744735_a_at) / Fold change /veh TMEM200A (11744735_a_at) / RFU CCDC152 (11751479_a_at) / Fold change /veh CCDC152 (11751479_a_at) / RFU FAM211A (11726209_a_at) / Fold change /veh FAM211A (11726209_a_at) / RFU RGS16 (11746705_a_at) / Fold change /veh RGS16 (11746705_a_at) / RFU VCAN (11755009_s_at) / Fold change /veh VCAN (11755009_s_at) / RFU RHOB (11743442_s_at) / Fold change /veh RHOB (11743442_s_at) / RFU RGS16 (11720943_a_at) / Fold change /veh RGS16 (11720943_a_at) / RFU RGS16 (11720944_at) / Fold change /veh RGS16 (11720944_at) / RFU, VPS4B / Fold change vs veh, VPS4B / RFU, CREB1 / Fold change vs veh, CREB1 / RFU, DNAJC13 / Fold change vs veh, DNAJC13 / RFU, GNAQ / Fold change vs veh, GNAQ / RFU, CDK5R1 / Fold change vs veh, CDK5R1 / RFU, ZRANB3 / Fold change vs veh, ZRANB3 / RFU, CUL4A / Fold change vs veh, CUL4A / RFU, CCNY / Fold change vs veh, CCNY / RFU, UFL1 / Fold change vs veh, UFL1 / RFU, COG3 / Fold change vs veh, COG3 / RFU, DIAPH2 / Fold change vs veh, DIAPH2 / RFU, SKA2 / Fold change vs veh, SKA2 / RFU, AFF3 / Fold change vs veh, AFF3 / RFU, LMF1 / Fold change vs veh, LMF1 / RFU, IPO11 / Fold change vs veh, IPO11 / RFU, DFFB / Fold change vs veh, DFFB / RFU, FOXP1 / Fold change vs veh, FOXP1 / RFU, CARD8 / Fold change vs veh, CARD8 / RFU, STRN3 / Fold change vs veh, STRN3 / RFU, ADK / Fold change vs veh, ADK / RFU, RASSF2 / Fold change vs veh, RASSF2 / RFU, WIPF1 / Fold change vs veh, WIPF1 / RFU, LARP1B / Fold change vs veh, LARP1B / RFU, RASA1 / Fold change vs veh, RASA1 / RFU, RB1 / Fold change vs veh, RB1 / RFU, PPFIA1 / Fold change vs veh, PPFIA1 / RFU, MAT2A / Fold change vs veh, MAT2A / RFU, CCT5 / Fold change vs veh, CCT5 / RFU, WDR92 / Fold change vs veh, WDR92 / RFU, CUX1 / Fold change vs veh, CUX1 / RFU, TTC7A / Fold change vs veh, TTC7A / RFU, TMEM135 / Fold change vs veh, TMEM135 / RFU, DEPTOR / Fold change vs veh, DEPTOR / RFU, CPM / Fold change vs veh, CPM / RFU, DNAJB6 / Fold change vs veh, DNAJB6 / RFU, CACNA2D3 / Fold change vs veh, CACNA2D3 / RFU, DTX4 / Fold change vs veh, DTX4 / RFU, TFCP2 / Fold change vs veh, TFCP2 / RFU, GMCL1 /// GMCL1P1 / Fold change vs veh, GMCL1 /// GMCL1P1 / RFU, AEBP2 / Fold change vs veh, AEBP2 / RFU, SNHG1 /// SNORD22 /// SNORD25 /// SNORD26 /// SNORD27 /// SNORD28 /// SNORD29 /// SNORD31 / Fold change vs veh, SNHG1 /// SNORD22 /// SNORD25 /// SNORD26 /// SNORD27 /// SNORD28 /// SNORD29 /// SNORD31 / Fold change (Aza/veh), C12orf56 (ProbeSet 11735607_a_at) / Fold change (ACY-1035/veh), C12orf56 (ProbeSet 11735607_a_at) / Fold change (Aza/veh), FGFR1OP (ProbeSet 11751329_s_at) / Fold change (ACY-1035/veh), FGFR1OP (ProbeSet 11751329_s_at) / Fold change (Aza/veh), VPS36 (ProbeSet 11739960_a_at) / Fold change (ACY-1035/veh), VPS36 (ProbeSet 11739960_a_at) / RFU SYPL1 (11715823_x_at) / Fold change /veh SYPL1 (11715823_x_at) / RFU IGFBP7 (11715501_s_at) / Fold change /veh IGFBP7 (11715501_s_at) / RFU REEP3 (11722064_at) / Fold change /veh REEP3 (11722064_at) / RFU IGLL1 (11728026_x_at) / Fold change /veh IGLL1 (11728026_x_at): dose or concentration left out as unconfirmed. As to conditions: ProbeSet 11719817_x_at; LIST B.

SMILES strings stand for the structures.

On to `Nc1ccc(-c2cccs2)cc1NC(=O)c1ccc2c(c1)cc(C1CC1)n2CCN1CCOCC1` [ACY-1035], for which the “Fold change vs veh, BET1” value is reported as 0.95.
